These results are taken from publication PMC8126888 (RSC Medicinal Chemistry, 2020).

What is called microsomal CLint is a measure of how fast metabolising enzymes remove a compound, apart from limits set by blood flow.

A short description of data set [1]: in vitro. The note with it: human, s9, pH 7.4, Clint human mic., Fig. 2; human microsomes (S9 fractions).
Data set [2] can be described thus: in vitro. To be noted: mouse, s9, pH 7.4, Clint mouse mic., Fig. 2; mouse microsomes (S9 fractions).
Data set [3] deals with Leishmania infantum MHOM/MA(BE)/67/ITMAP263 intracellular amastigotes. Kind of data set: microbe, parasite or virus in culture. The note with it: Macrophage, in Mus musculus.
Data set [4] concerns axenic L. don. amastigotes (MHOM/SD/62/1S-CL2, LdBOB). As to the kind of experiment: microbe, parasite or virus in culture. The note with it: Leishmania donovani.
In data set [5] the test system is Leishmania infantum MHOM/MA(BE)/67/ITMAP263 intracellular amastigotes. To be noted: for IC50: read-out: L. infantum MHOM/MA(BE)/67/ITMAP263 intracellular amastigotes IC50; for L. Inf. pIC50: from L. infantum intracellular amastigote IC50.
Data set [6] has as its system L. donovani MHOM/ET/67/L82 intracellular amastigotes. To be noted: read-out: L. donovani MHOM/ET/67/L82 intracellular amastigotes IC50.
The test system of data set [7] is primary peritoneal mouse macrophages (PMM). To be noted: PMM IC50 / L. infantum IC50.
Data set [8] has as its system MRC-5SV2 cells. As to the kind of experiment: Cytotoxicity assay on MRC-5SV2 cells (resazurin). Background: Alamar Blue is a resazurin reagent that responds to reducing activity.
Data set [9] concerns primary peritoneal mouse macrophages (PMM). Kind of data set: Cytotoxicity to PMM (microscopic scoring within susceptibility assay).
Data set [10] shares this test system. As to the kind of experiment: cells. The note with it: Macrophage, read-out: PMM IC50.
Data set [11] can be described thus: in vitro. To be noted: human.
The subject of data set [12] is L. donovani MHOM/ET/67/L82 intracellular amastigotes. As to the kind of experiment: microbe, parasite or virus in culture. The note with it: Leishmania donovani, read-out: L. donovani MHOM/ET/67/L82 intracellular amastigotes IC50.
The test system of data set [13] is Trypanosoma cruzi, Tulahuen CL2, beta-galactosidase strain. As to the kind of experiment: microbe, parasite or virus in culture. The note with it: MRC5, read-out: T. cruzi Tulahuen C4 (LacZ) IC50.
Data set [14] is described as follows: in vitro. The note with it: human, THP-1 cells differentiated with PMA.
A short description of data set [15]: in vitro. To be noted: human, HepG2 cells.
Data set [16] concerns L. donovani MHOM/SD/62/1SCL2D intracellular amastigotes. As to the kind of experiment: microbe, parasite or virus in culture. The note with it: Leishmania donovani, read-out: L. donovani MHOM/SD/62/1SCL2D intracellular amastigotes IC50.
The mark [17] stands for this setting: read-out: L. inf. pIC50, intracellular amastigotes in PMM (converted), geometric mean of a minimum of two experiments ± standard error.
The mark [18] stands for this setting: read-out: L. don. pIC50 (converted).
The mark [19] stands for this setting: read-out: L. Inf. pIC50 (converted).
[20] abbreviates: read-out: L. infantum MHOM/MA(BE)/67/ITMAP263 intracellular amastigotes IC50.
Setting [21] is: read-out: L. donovani MHOM/SD/62/1SCL2D axenic-cidal amastigotes IC50.

Like-named read-outs stand apart in the source and are kept apart here.

As to `COc1cc(S(=O)(=O)N(Cc2ccccc2)Cc2ccccc2)c(OC)cc1C` [Compound 6], the intrinsic metabolic clearance (microsomal CLint) at 0.5 μM is 828 µL/min/mg in data set [1] and 1080 µL/min/mg in data set [2]. The values for the IC50 in [3] (setting [17]) and in data set [4] (setting [18]) were 0.501 µM and 1.51 µM, respectively.

On to `CCCCCOc1cc(C)c(Cl)cc1S(=O)(=O)NCc1cccs1` [Compound 7], for which the microsomal CLint at 0.5 μM was determined as 624 µL/min/mg in data set [1] and 693 µL/min/mg in data set [2]. The IC50 in data set [3] (setting [17]) was 0.447 µM; in [4] (setting [18]), 4.37 µM.

On to `CCCCCOc1cc(C)c(C)cc1S(=O)(=O)NC1CCCC1` [Compound 8], for which the microsomal CLint at 0.5 μM is 567 µL/min/mg in data set [1] and 416 µL/min/mg in data set [2]. The figures for the IC50 in data set [3] (setting [17]) and in data set [4] (setting [18]) were 0.589 µM and 12 µM, respectively.

Regarding `CCN(CC)S(=O)(=O)c1ccc(OC)c(NC(=O)CN(C)c2ccccc2)c1` [Compound Z46175669], the IC50 in data set [5], in [6] and in data set [9] was above 32 µM throughout. Further, the “SI (vs PMM)” value in data set [7] was determined as 1. Moreover, the CC50 in data set [8] is above 32 µM.

On to `COc1ccc(S(=O)(=O)N(C)C)cc1NC(=O)Cn1c(C)cc2ccccc21` [Compound Z109062140], for which the IC50 in [5], in data set [6] and in data set [9] was above 32 µM throughout. Also, the “SI (vs PMM)” value in [7] was 1. Further, the CC50 in data set [8] was above 32 µM.

Consider `COc1ccc(S(=O)(=O)N(C)C)cc1NC(=O)C1Cc2ccccc2O1` (centres unmarked) [Compound Z109062150], for which the IC50 in data set [5], in [6] and in data set [9] was above 32 µM throughout. In addition, the “SI (vs PMM)” value in [7] stood at 1. Besides, the CC50 in [8] was above 32 µM.

With `CCN(CC)S(=O)(=O)c1ccc(OC)c(NC(=O)CNc2cccc3c2CCCC3)c1` [Compound Z133511332], the IC50 in data set [5], in data set [6] and in data set [9] was above 32 µM each time. The “SI (vs PMM)” value in [7] came out at 1. The compound further showed a CC50 in [8] above 32 µM.

With `CCOc1cc(S(=O)(=O)N(Cc2ccccc2)Cc2ccccc2)c(OCC)cc1C` [Compound Z1198037468], the “L. Inf. pIC50” value in [5] is 6.06. Moreover, the results for the IC50 in data set [5], in [6] and in data set [9] were 0.87 µM, 25.4 µM and above 32 µM, respectively. In addition, in [7], the “SI (vs PMM)” value is 37. The compound also displayed a CC50 in [8] above 32 µM.

Regarding `CCCOc1cc(C)c(C)cc1S(=O)(=O)NC1CCCCC1` [Compound Z1198524053], the “L. Inf. pIC50” value in data set [5] stood at 5.27. In addition, the IC50 in data set [5] is 5.38 µM; in data set [6] it was above 32 µM; in data set [9] it was above 32 µM. For the same compound, in data set [7], the “SI (vs PMM)” value is listed as 6. Besides, in data set [8], the CC50 is above 32 µM.

In the case of `CCCCCOc1cc(C)c(C)cc1S(=O)(=O)NC1CCCCC1` [Compound Z1201712752], the “L. Inf. pIC50” value in [5] is recorded as 5.98. In addition, the IC50 is 1.04 µM in data set [5], 4.32 µM in [6] and above 32 µM in data set [9]. Further, in data set [7], the “SI (vs PMM)” value came to 31. The CC50 in data set [8] amounted to 26.1 µM.

For `CCc1c(C(=O)N2CCc3ccc(S(=O)(=O)NC)cc32)[nH]c(C)c1C(C)=O` [Compound Z1262206860], the IC50 in data set [5], in [6] and in data set [9] was above 32 µM throughout. Moreover, the “SI (vs PMM)” value in data set [7] came out at 1. The CC50 in [8] is above 32 µM.

On to `CCCCOc1cc(C)c(C(C)C)cc1S(=O)(=O)NC1CCCCC1` [Compound Z1346174753], for which the “L. Inf. pIC50” value in [5] turned out to be 6. For the same compound, the IC50 was found to be 1.01 µM in [5], 3.39 µM in data set [6] and 16 µM in data set [9]. Further, in data set [7], the “SI (vs PMM)” value came to 16. In [8], this compound returned a CC50 of 3.74 µM.

Take `COc1cc(S(=O)(=O)N2CCN(Cc3ccccc3)CC2)c(OC)cc1C` [Compound Z1532943652]: the IC50 in [5], in [6] and in data set [9] was above 32 µM in each case. Further, the “SI (vs PMM)” value in data set [7] was found to be 1. Moreover, the CC50 in [8] was above 32 µM.

As for `COc1cc(C)c(C)cc1S(=O)(=O)NC1CCCCC1` [Compound Z1542834122], the IC50 in data set [5], in data set [6] and in [9] was above 32 µM each time. Further, the “SI (vs PMM)” value in [7] worked out at 1. This compound showed a CC50 in data set [8] above 32 µM.

`CCCCCOc1cc(C)c(Cl)cc1S(N)(=O)=O` [Compound Z1724003560]: the IC50 in [5], in data set [6] and in [9] was above 32 µM throughout. For the same compound, the “SI (vs PMM)” value in data set [7] is 1. The compound further had a CC50 in data set [8] above 32 µM.

In the case of `CCCCCOc1cc(C)c(C)cc1S(=O)(=O)NC1CC(C)(C)NC(C)(C)C1` [Compound Z2035103903], the “L. Inf. pIC50” value in data set [5] came to 5.32. For the same compound, the IC50 was 4.76 µM in data set [5], 16.2 µM in data set [6] and above 32 µM in data set [9]. Besides, the “SI (vs PMM)” value in data set [7] amounted to 7. For the same compound, the CC50 in data set [8] was 10.9 µM.

`CCN(Cc1ccccc1)S(=O)(=O)c1cc(OC)c(C)cc1OC` [Compound Z2235810678]: the “L. Inf. pIC50” value in data set [5] was found to be 5.97. The IC50 in data set [5] is 1.08 µM; in data set [6] it was 6.35 µM; in data set [9] it was above 32 µM. In addition, the “SI (vs PMM)” value in data set [7] is on record as 30. For the same compound, the CC50 in data set [8] is above 32 µM.

Turning to `CCCOc1cc(C)c(C)cc1S(=O)(=O)NC1CCCC1` [DNDI0002550535], the IC50 in [10], in data set [3] (setting [19]), in [3] (setting [20]), in data set [12] and in [13] was above 32 µM throughout. For the same compound, the CC50 at 3 days in [11] is above 32 µM.

On to `CCCCOc1cc(C)c(Cl)cc1S(=O)(=O)NCc1cccnc1` [DNDI0002558122], for which the IC50 was above 32 µM in data set [10], 16.6 µM in data set [3] (setting [19]), 16.6 µM in data set [3] (setting [20]) and 25.4 µM in [12]. In addition, the CC50 at 3 days in data set [11] is above 32 µM.

`COc1cc(S(=O)(=O)NCc2ccccc2)c(OC)cc1C` [DNDI0002564850]: the IC50 in [10], in [3] (setting [19]), in [3] (setting [20]), in [12] and in data set [13] was above 32 µM throughout. Moreover, in data set [11], the CC50 at 3 days was above 32 µM.

`CCCCCOc1cc(C)c(Cl)cc1S(=O)(=O)NCc1ccco1` [DNDI0002567970]: the IC50 in data set [10] is above 32 µM; in data set [3] (setting [19]), 1.07 µM; in [3] (setting [20]) it was 1.08 µM; in [12], 4.76 µM; in [4] (setting [21]), 12 µM; in data set [16], 48 µM. The compound also showed a CC50 at 120 h in data set [14] above 50 µM. This compound also yielded a CC50 at 3 days in data set [11] of 11.7 µM. The same compound registered a CC50 in data set [15] above 50 µM.

For `CCCOc1cc(C)c(Cl)cc1S(=O)(=O)NCc1cccs1` [DNDI0002572626], the IC50 in [10] was above 32 µM; in data set [3] (setting [19]), 25.1 µM; in data set [3] (setting [20]) it was 25.4 µM; in data set [12] it was above 32 µM; in data set [13], above 32 µM. In addition, the CC50 at 3 days in [11] was above 32 µM.

In the case of `CCCCOc1cc(C)c(Cl)cc1S(=O)(=O)NCc1cccs1` [DNDI0002620367], the IC50 in data set [10] is above 32 µM; in data set [3] (setting [19]), 0.794 µM; in data set [3] (setting [20]) it was 0.79 µM; in data set [12], 5.38 µM; in [4] (setting [21]) it was 11 µM; in [16] it was 22 µM. Further, the CC50 at 120 h in [14] is above 50 µM. For the same compound, the CC50 at 3 days in data set [11] was determined as 4.56 µM. The compound also displayed a CC50 in data set [15] above 50 µM.

In the case of `COc1cc(S(=O)(=O)NC(C)c2ccccc2)c(OC)cc1C` (centres unmarked) [DNDI0002622495], the IC50 in data set [10], in [3] (setting [19]), in data set [3] (setting [20]), in [12] and in data set [13] was above 32 µM throughout. This compound also displayed a CC50 at 3 days in data set [11] above 32 µM.

Take `CCCOc1cc(C)c(C)cc1S(=O)(=O)NCC1CCCO1` (centres unmarked) [DNDI0002622936]: the IC50 in data set [10] is above 32 µM; in [3] (setting [19]) it was 25.1 µM; in data set [3] (setting [20]), 25.4 µM; in data set [12], above 32 µM; in [13], above 32 µM. The compound also registered a CC50 at 3 days in [11] above 32 µM.

Take `Cc1nnc2ccc(S(=O)(=O)N(Cc3cccc(F)c3)c3ccc4c(c3)OCO4)cn12` [DNDI0003321887]: in [4] (setting [21]), the IC50 was above 30 µM.

In the case of `O=S(=O)(c1ccc2nncn2c1)N(Cc1ccccc1F)c1ccc2c(c1)OCO2` [DNDI0003321889], the IC50 in data set [4] (setting [21]) is above 30 µM.
